Measurements taken from PubChem BioAssay AID330 (DTP/NCI, 2004).
Where “and” joins values, the source holds several entries; their conditions need not be identical. Identical values can stand only once. Toxic doses and inconclusive results are not listed. How the source made its calls: active means survival T/C of 150% or more; inactive means T/C below 125% in these data.

Tested on: P388 leukemia ip, CD2F1 mice, survival T/C
Assay: NCI In Vivo Anticancer Drug Screen. Data for tumor model P388 Leukemia (intraperitoneal) in CD2F1 (CDF1) mice
Details: endpoint: median survival time, higher = longer survival
Procedure, shortened: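 Mice carrying the transplanted tumor received test compound or vehicle. Survival was recorded in each group, and the value is the treated-group measurement divided by that of the vehicle-treated control group.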

[1] = dose: 50.0 mg/kg/injection, schedule: Q01DX005 (ip), vehicle: Klucel (hydroxypropylcellulose) (HPC)
[2] = dose: 100.0 mg/kg/injection, schedule: Q01DX005 (ip), vehicle: Klucel (hydroxypropylcellulose) (HPC)
[3] = dose: 50.0 mg/kg/injection, schedule: Q01DX005 (ip), vehicle: saline with Tween-80
[4] = dose: 100.0 mg/kg/injection, schedule: Q01DX005 (ip), vehicle: saline with Tween-80
[5] = dose: 200.0 mg/kg/injection, schedule: Q01DX005 (ip), vehicle: saline with Tween-80
[6] = dose: 60.0 mg/kg/injection, schedule: Q01DX005 (ip), vehicle: saline with Tween-80
[7] = dose: 120.0 mg/kg/injection, schedule: Q01DX005 (ip), vehicle: saline with Tween-80
[8] = dose: 50.0 mg/kg/injection, schedule: Q01DX009 (ip), vehicle: saline with Tween-80
[9] = dose: 100.0 mg/kg/injection, schedule: Q01DX009 (ip), vehicle: saline with Tween-80
[10] = dose: 50.0 mg/kg/injection, schedule: Q01DX009 (ip), vehicle: saline
[11] = dose: 100.0 mg/kg/injection, schedule: Q01DX009 (ip), vehicle: saline
[12] = dose: 200.0 mg/kg/injection, schedule: Q01DX009 (ip), vehicle: saline

Measured: T/C

CC(C)(C)N1C(=O)NCS1(=O)=O
inactive: [1] 100 % of control | [2] 100 % of control | dose: 200.0 mg/kg/injection, schedule: Q01DX005 (ip), vehicle: Klucel (hydroxypropylcellulose) (HPC) 115 % of control

O=C1C(O)[C@@H](O)C(=O)N1Cc1ccccc1 (some centres undefined)
inactive: dose: 60.0 mg/kg/injection, schedule: Q01DX005 (ip), vehicle: Klucel (hydroxypropylcellulose) (HPC) 97 % of control | dose: 120.0 mg/kg/injection, schedule: Q01DX005 (ip), vehicle: Klucel (hydroxypropylcellulose) (HPC) 102 % of control | dose: 240.0 mg/kg/injection, schedule: Q01DX005 (ip), vehicle: Klucel (hydroxypropylcellulose) (HPC) 93 % of control

O=[N+]([O-])c1cnc(Sc2cncc[n+]2[O-])s1
inactive: dose: 1.56 mg/kg/injection, schedule: Q01DX009 (ip), vehicle: Klucel (hydroxypropylcellulose) (HPC) 100 % of control | dose: 3.12 mg/kg/injection, schedule: Q01DX009 (ip), vehicle: Klucel (hydroxypropylcellulose) (HPC) 93 % of control | dose: 6.25 mg/kg/injection, schedule: Q01DX009 (ip), vehicle: Klucel (hydroxypropylcellulose) (HPC) 102 % of control and 90 % of control

C/C=C(\C)C(=O)OC1C(C)C2(O)C(C=C(CO)CC3(O)C(=O)C(C)=CC32)C2C(C)(C)C12OC(=O)CCCCCCCCC (centres undefined)
inactive: dose: 0.13 mg/kg/injection, schedule: Q01DX009 (ip), vehicle: saline + alcohol 124 % of control | dose: 0.5 mg/kg/injection, schedule: Q01DX009 (ip), vehicle: saline + alcohol 124 % of control

COC(=O)C1(C2(C(=O)OC)NC(C)=C(c3ccccc3)C(=O)O2)NC(C)=C(c2ccccc2)C(=O)O1 (centres undefined)
inactive: [3] 97 % of control | [4] 100 % of control | [5] 91 % of control

Nc1nccc(CCc2ccccc2)n1
inactive: [6] 101 % of control | [7] 95 % of control

COc1ccc(COCc2ccc(OC)c(O)c2)cc1O
inactive: [8] 101 % of control | [9] 99 % of control

CCCCCCOC(=O)c1ccc(I)cc1
inactive: [8] 97 % of control | [9] 93 % of control | dose: 200.0 mg/kg/injection, schedule: Q01DX009 (ip), vehicle: saline with Tween-80 100 % of control

CCC1C(c2c[nH]c3ccccc23)N(C=O)CCC1(O)C(C)=O (centres undefined)
inactive: dose: 4.38 mg/kg/injection, schedule: Q01DX005 (ip), vehicle: Klucel (hydroxypropylcellulose) (HPC) 99 % of control | dose: 8.75 mg/kg/injection, schedule: Q01DX005 (ip), vehicle: Klucel (hydroxypropylcellulose) (HPC) 99 % of control | dose: 17.5 mg/kg/injection, schedule: Q01DX005 (ip), vehicle: Klucel (hydroxypropylcellulose) (HPC) 96 % of control

NC(=S)N/N=C/c1c(O)c2cc(Cl)ccc2[nH]c1=O
inactive: [3] 106 % of control | [4] 112 % of control | [5] 112 % of control

C=C1C(=O)O[C@@H]2C(=O)[C@@H](C)[C@@H]3C=CC(=O)[C@@]3(C)[C@@H](OC(=O)/C(C)=C\C)[C@H]12
inactive: dose: 2.0 mg/kg/injection, schedule: Q01DX009 (ip), vehicle: saline + alcohol 107 % of control | dose: 4.0 mg/kg/injection, schedule: Q01DX009 (ip), vehicle: saline + alcohol 99 % of control | dose: 8.0 mg/kg/injection, schedule: Q01DX009 (ip), vehicle: saline + alcohol 109 % of control and 123 % of control | dose: 16.0 mg/kg/injection, schedule: Q01DX009 (ip), vehicle: saline + alcohol 116 % of control

Cc1c(C)c(=O)c2cc3c(=O)ccc(=O)c3cc2c1=O
inactive: dose: 12.5 mg/kg/injection, schedule: Q04DX003 (ip), vehicle: Klucel (hydroxypropylcellulose) (HPC) 101 % of control | dose: 25.0 mg/kg/injection, schedule: Q04DX003 (ip), vehicle: Klucel (hydroxypropylcellulose) (HPC) 96 % of control | dose: 50.0 mg/kg/injection, schedule: Q04DX003 (ip), vehicle: Klucel (hydroxypropylcellulose) (HPC) 103 % of control

O=C(O)C(=Cc1cccc2ccccc12)C(=O)O
inactive: dose: 25.0 mg/kg/injection, schedule: Q01DX005 (ip), vehicle: Klucel (hydroxypropylcellulose) (HPC) 89 % of control | [1] 100 % of control | [2] 89 % of control

O=c1oc2ccc3ccccc3c2cc1-n1nnc2ccccc21
inactive: [6] 91 % of control | [7] 90 % of control

C=C1CC2(CCOc3ccc(Cl)cc32)OC1=O (centres undefined)
inactive: dose: 25.0 mg/kg/injection, schedule: Q04DX003 (ip), vehicle: saline with Tween-80 110 % of control | dose: 50.0 mg/kg/injection, schedule: Q04DX003 (ip), vehicle: saline with Tween-80 118 % of control | dose: 100.0 mg/kg/injection, schedule: Q04DX003 (ip), vehicle: saline with Tween-80 101 % of control and 116 % of control | dose: 200.0 mg/kg/injection, schedule: Q04DX003 (ip), vehicle: saline with Tween-80 101 % of control

Cc1ccc(S(=O)(=O)n2cccn2)cc1
inactive: dose: 6.25 mg/kg/injection, schedule: Q01DX009 (ip), vehicle: distilled water + Tween-80 95 % of control | dose: 12.5 mg/kg/injection, schedule: Q01DX009 (ip), vehicle: distilled water + Tween-80 100 % of control | dose: 25.0 mg/kg/injection, schedule: Q01DX009 (ip), vehicle: distilled water + Tween-80 94 % of control | dose: 25.0 mg/kg/injection, schedule: Q01DX009 (ip), vehicle: other 88 % of control | dose: 50.0 mg/kg/injection, schedule: Q01DX009 (ip), vehicle: distilled water + Tween-80 105 % of control | dose: 100.0 mg/kg/injection, schedule: Q01DX009 (ip), vehicle: distilled water + Tween-80 99 % of control | dose: 100.0 mg/kg/injection, schedule: Q01DX009 (ip), vehicle: other 113 % of control | dose: 200.0 mg/kg/injection, schedule: Q01DX009 (ip), vehicle: other 104 % of control | dose: 400.0 mg/kg/injection, schedule: Q01DX009 (ip), vehicle: other 112 % of control

CC1(C)OC2(CC1C1(C)C=CC(=O)O1)CC1(O)C(CCC34CC13C(=O)OC4c1ccoc1)O2 (centres undefined)
inactive: [10] 97 % of control | [11] 90 % of control | [12] 90 % of control

CCCCCCCCCCCCCCCOc1cc(OC)ccc1-c1nnc(SC)s1
inactive: [10] 100 % of control | [11] 91 % of control | [12] 100 % of control

O=C1OC(Oc2ccccc2OC2OC(=O)c3ccccc32)c2ccccc21 (centres undefined)
inactive: [6] 98 % of control | [7] 106 % of control | dose: 240.0 mg/kg/injection, schedule: Q01DX005 (ip), vehicle: saline with Tween-80 100 % of control

O=S(=O)(O)c1ccc(CCCCCCl)cc1
inactive: dose: 100.0 mg/kg/injection, schedule: Q04DX003 (ip), vehicle: saline 100 % of control | dose: 200.0 mg/kg/injection, schedule: Q04DX003 (ip), vehicle: saline 95 % of control | dose: 400.0 mg/kg/injection, schedule: Q04DX003 (ip), vehicle: saline 86 % of control

CCCCN(N=O)C(C)=O
inactive: dose: 100.0 mg/kg/injection, schedule: Q04DX002 (ip), vehicle: saline with Tween-80 101 % of control | dose: 200.0 mg/kg/injection, schedule: Q04DX002 (ip), vehicle: saline with Tween-80 98 % of control

CCN(CC)CCN=c1c(C)nc(C#N)c(N)n1O
inactive: dose: 10.0 mg/kg/injection, schedule: Q01DX009 (ip), vehicle: saline with Tween-80 100 % of control and 102 % of control and 105 % of control | dose: 20.0 mg/kg/injection, schedule: Q01DX009 (ip), vehicle: saline with Tween-80 100 % of control and 118 % of control and 96 % of control | dose: 40.0 mg/kg/injection, schedule: Q01DX009 (ip), vehicle: saline with Tween-80 98 % of control and 103 % of control | dose: 80.0 mg/kg/injection, schedule: Q01DX009 (ip), vehicle: saline with Tween-80 98 % of control and 106 % of control

Oc1ccccc1C=NCCC[N-]CCCN=Cc1ccccc1O.[Co]
inactive: dose: 12.5 mg/kg/injection, schedule: Q01DX009 (ip), vehicle: saline 113 % of control | [11] 119 % of control

CCCOC(=O)/C=C(\I)C(=O)OCCC
inactive: dose: 12.5 mg/kg/injection, schedule: Q01DX009 (ip), vehicle: saline with Tween-80 119 % of control | dose: 25.0 mg/kg/injection, schedule: Q01DX009 (ip), vehicle: saline with Tween-80 110 % of control | [8] 110 % of control and 92 % of control

CC/C(=C(/CC)c1ccc(O)cc1)c1ccc(O)cc1
inactive: dose: 50.0 mg/kg/injection, schedule: Q01DX008 (ip), vehicle: saline with Tween-80 101 % of control | dose: 100.0 mg/kg/injection, schedule: Q01DX008 (ip), vehicle: saline with Tween-80 97 % of control | dose: 200.0 mg/kg/injection, schedule: Q01DX008 (ip), vehicle: saline with Tween-80 106 % of control | dose: 400.0 mg/kg/injection, schedule: Q01DX008 (ip), vehicle: saline with Tween-80 99 % of control
